From paper PMC8113459, “Selective inhibition of cullin 3 neddylation through covalent targeting DCN1 protects mice from acetaminophen-induced liver toxicity” (Nature Communications, 2021)
pEC50: −log10 of the molar value. Values joined by “and” are separate entries in the source; they are usually repeats but may differ in a detail not shown here. Equal entries are not always repeated. Where two headings read alike, the source gives them in different places.

How the values were obtained:
DCN1 = DCN1 (Homo sapiens, UniProt Q96GG9); assay: BLI assay; format: binding; parameters: biotin (chemical labelling, EZ-Link long-chain reagent)
Chain of DCN1 (Q96GG9 whole entry): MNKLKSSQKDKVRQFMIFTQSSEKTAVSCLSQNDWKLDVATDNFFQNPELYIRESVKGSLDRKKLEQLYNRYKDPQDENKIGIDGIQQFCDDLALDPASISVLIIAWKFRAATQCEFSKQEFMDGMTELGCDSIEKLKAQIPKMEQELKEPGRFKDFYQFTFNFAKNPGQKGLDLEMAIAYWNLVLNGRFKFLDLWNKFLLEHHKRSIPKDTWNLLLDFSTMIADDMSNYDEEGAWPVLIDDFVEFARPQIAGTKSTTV
Protocol: BLI experiments were performed using an OctetRED96 instrument from PALL/ForteBio, as previously described. All assays were run at 30 °C using PBS (pH 7.4) as the assay buffer, in which 0.1% BSA, 0.01% Tween-20, and 2% DMSO were added. DCN1 protein was biotinylated using the Thermo EZ-Link long-chain biotinylation reagent. Biotinylated DCN1 protein was tethered on super streptavidin biosensors (ForteBio) by dipping sensors into 10 µg/mL protein solutions. To eliminate loose nonspecific bound protein and establish a stable base line, sensors with proteins were moved and dipped into wells with pure assay buffer and equilibrated in the buffer for 10 min. Association–dissociation cycles were performed by moving and dipping sensors into compound solution wells then into pure buffer wells. DMSO-only reference was included in all assays.

[1] = Cell viability assay (WST-8), KYSE70; format: cell-based, human; conditions: human, KYSE70 cells, replicates, read-out: cell viability relative to control
Protocol: (§1) Cell viability assay was performed as previously described. The effect of DCN1 inhibitors on cell growth was evaluated by a WST-8 [2-(2-methoxy-4-nitrophenyl)-3-(4-nitrophenyl)-5-(2,4-disulfophenyl)-2H-tetrazolium, monosodium salt assay (Dojindo Molecular Technologies, Inc). Cells (2000–3000 cells in each well) were seeded in 96-well tissue culture plates in medium (100 μL) and treated with serial dilution of DCN1 inhibitors for 3 days. At the end of incubation, WST-8 dye (20 μL) was added to each well and incubated for 1–3 h, then the absorbance was measured in a microplate reader (Molecular Devices) at 450 nm. Cell growth inhibition was evaluated as the ratio of the absorbance of the sample to that of the control. The values were inserted into Prism software, and the curves and the EC50 values were produced by Prism software.

KYSE70 cells = assay: Cell viability assay (WST-8), KYSE70; format: cell-based, human; conditions: for cell viability relative to control: replicates
Protocol: as §1

MDA-MB-231 cells = assay: Cell viability assay (WST-8), MDA-MB-231; format: cell-based, human; conditions: for cell viability relative to control: replicates
Outline: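 Cells (2000–3000 per well) were treated with serial dilutions of DCN1 inhibitors for 3 days, then incubated 1–3 h with WST-8 and absorbance read at 450 nm. Growth inhibition was sample-to-control absorbance ratio, with EC50 from fitted curves.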

neddylation of cullin 3 = assay: Western blot, cullin 3 neddylation in THLE2 liver cells; format: cell-based, human
Protocol: Western blotting was performed as described previously. Treated cells were lysed by RIPA buffer supplemented with protease inhibitor. The expression level of indicated proteins was examined by immunoblotting analysis and GAPDH was used as the loading control. Antibodies were purchased commercially: cullin 1 (sc-17775, 1:500 dilution) and cullin 2 (sc-166506, 1:500 dilution) from Santa Cruz Biotech (Santa Cruz, CA); cullin 4A (PA5-14542, 1:1000 dilution), cullin 4B (PA5-50647, 1:1000 dilution), and DCN3 (DCUN1D3, PA5-44000, 1:1000 dilution) from Thermo Fisher Scientific (Wayne, MI); cullin 3 (2759, 1:1000), NRF2 (12721, 1:1000 dilution), HO-1 (70081, 1:1000 dilution), and Bim (2819, 1:1000 dilution) from Cell Signaling Technology (Boston, MA); DCN1 (GWB-E3D700, 1:1000 dilution) from GenWay Biotech (San Diego, CA); and cullin 5 (A302-173A, 1:500 dilution) from Bethyl Labs (Montgomery, TX). Results are representative of two independent experiments.

[2] = system: APAP-induced liver injury; assay: APAP-induced liver injury: ROS assay in liver tissue; format: in vivo, mouse
Protocol: The in vivo studies were performed under animal protocols (PRO00007499) and (PRO00006638) approved by the Institutional Animal Care & Use Committee of the University of Michigan, in accordance with the recommendations in the Guide for the Care and Use of Laboratory Animals of the National Institutes of Health. C57BL/6 WT mice (~8 weeks, male, normal chow) were purchased from the Jackson Laboratory and randomly divided into eight groups (8–9 mice per group) treated (IP) as follows: phosphate-buffered saline vehicle once per day for 3 days (G1), APAP alone a single dose at 400 mg/kg on day 1 (G2), DI-1859 alone 25 mg/kg once per day for 3 days (G3), DI-1859 alone 50 mg/kg once per day for 3 days (G4), pretreatment (1 day before the APAP administration) with DI-1859 at 25 mg/kg once per day for 3 days followed with APAP at 400 mg/kg on day (G5), pretreatment (1 day before the APAP administration) with DI-1859 at 50 mg/kg once per day for 3 days followed with APAP at 400 mg/kg on day (G6), APAP a single dose at 400 mg/kg (3 h before the first DI-1859 administration) followed with DI-1859 at 25 mg/Kg once per day for 3 days (G7), and APAP a single dose at 400 mg/kg (3 h before the first DI-1859 administration) followed with DI-1859 at 50 mg/Kg once per day for 3 days (G8).
To induce acute liver injury, animals received PBS or APAP (400 mg/kg, sigma, A7085) through I.P. injection at 12 p.m. and were sacrificed 48 h afterward. To examine the protective effect of DI-1859 (groups 5 and 6), animals were I.P. injected with compound for 3 consecutive days (9 a.m. on each day, starting 1 day before APAP administration). To examine the restorative effect of DI-1859 (groups 7 and 8), animals were I.P. injected with compound 3 h after APAP administration followed by two additional treatments (9 a.m. on the next 2 days). Body weight and blood glucose level measurement, along with blood sample collection, were performed at 12 p.m. on each day.
Liver samples were homogenized in a lysis buffer and mixed with a dichlorofluorescein diacetate fluorescent probe (DCF, Sigma, D6883) to a final probe concentration of 5 µM for 1 h at 37 °C. DCF fluorescence was measured using a BioTek Synergy 2 Multi-Mode Microplate Reader (485 nm excitation and 527 nm emission).

[3] = G3: DI-1859 25 mg/kg, qD for 3 days
[4] = G4: DI-1859 50 mg/kg, qD for 3 days
[5] = G5: DI-1859 25 mg/kg qD for 3 days, APAP 400 mg/kg 3 h after the second dose
[6] = G6: DI-1859 50 mg/kg qD for 3 days, APAP 400 mg/kg 3 h after the second dose
[7] = G7: APAP 400 mg/kg, then DI-1859 25 mg/kg 3 h after APAP and on day 2 and 3
[8] = G8: APAP 400 mg/kg, then DI-1859 50 mg/kg 3 h after APAP and on day 2 and 3

C=C(CN1CCOCC1)C(=O)NC[C@@H](NC(=O)[C@H](Cc1nc2ccc(C(C)C)cc2s1)NC(=O)CC)C1CCCCC1 [DI-1548]
dissociation phase of the complex with DCN1 (DCN1): no dissociation phase | concentration at which the BLI signal reaches near its maximum (DCN1; 1.56 to 100 nM tested): 25 nM | viability at 72 h ([1]; conc 10, 72 h): 99.4% | viability at 72 h ([1]; conc 30, 72 h): 104% | viability at 72 h ([1]; conc 100, 72 h): 99.4% | viability at 72 h ([1]; conc 300, 72 h): 94.1% | pEC50 (KYSE70 cells; Homo sapiens, KYSE-70, 72 h, cell line assigned from panel order, read-out: EC50, cell growth inhibition): < 6.00 | cell viability relative to control (KYSE70 cells; conc 10, 72 h): 103.349 and 104.463 | cell viability relative to control (KYSE70 cells; conc 30, 72 h): 98.066 and 96.6942 | cell viability relative to control (KYSE70 cells; conc 100, 72 h): 94.5283 and 108.512 | cell viability relative to control (KYSE70 cells; conc 300, 72 h): 88.5377 and 82.0661 | cell viability relative to control (KYSE70 cells; conc 1000, 72 h): 64.6226 and 79.9057 and 54.5868 | pEC50 (MDA-MB-231 cells; Homo sapiens, MDA-MB-231, 72 h, cell line assigned from panel order, read-out: EC50, cell growth inhibition): < 6.00 | cell viability relative to control (MDA-MB-231 cells; conc 10, 72 h): 103.908 and 110.805 and 88.1609 | cell viability relative to control (MDA-MB-231 cells; conc 30, 72 h): 104.754 and 102.705 | cell viability relative to control (MDA-MB-231 cells; conc 100, 72 h): 102.874 and 99.4253 | cell viability relative to control (MDA-MB-231 cells; conc 300, 72 h): 87.0115 and 106.207 and 84.7126 | cell viability relative to control (MDA-MB-231 cells; conc 1000, 72 h): 77.0115 and 107.241 and 112.414

C=C(CN(C)C)C(=O)NC[C@@H](NC(=O)[C@H](Cc1nc2ccc(C(C)C)cc2s1)NC(=O)CC)C1CCCCC1 [DI-1859]
times more potent than MLN4924 in inhibition of the neddylation of cullin 3 (neddylation of cullin 3): ~ 30 times | ROS level in mouse liver tissue, mean [2, 3]: 7.034 A.U./ug | ROS level normalised to the mean of G1 (vehicle), mean [2, 3]: 0.9296 | ROS level in mouse liver tissue, mean [2, 4]: 7.229 A.U./ug | ROS level normalised to the mean of G1 (vehicle), mean [2, 4]: 0.9554 | ROS level in mouse liver tissue, mean [2, 5]: 10.9296 A.U./ug | ROS level normalised to the mean of G1 (vehicle), mean [2, 5]: 1.445 | ROS level in mouse liver tissue, mean [2, 6]: 8.337 A.U./ug | ROS level normalised to the mean of G1 (vehicle), mean [2, 6]: 1.102 | ROS level in mouse liver tissue, mean [2, 7]: 10.4847 A.U./ug | ROS level normalised to the mean of G1 (vehicle), mean [2, 7]: 1.3857 | ROS level in mouse liver tissue, mean [2, 8]: 10.3541 A.U./ug | ROS level normalised to the mean of G1 (vehicle), mean [2, 8]: 1.368 | effect on the level of reactive oxygen species (ROS) ([2]; prevention and treatment settings): effectively reduced the level of reactive oxygen species
